In patent publication US7238685B2, “Benzo-fused heterocycles as endothelin antagonists” (Actelion Pharmaceuticals Ltd., priority 2001, dated 2007):
pIC50: −log10 of the molar value. Where two headings read alike, the source gives them in different places.

Columns and labels:
[1] = target: T1, human recombinant ETA receptors (Homo sapiens, UniProt P25101); test: Inhibition of endothelin binding to membranes from CHO cells carrying human ET receptors (ETA)
T1 construct: expressed in transfected cells; host or cells: CHO cells (microsomal membranes)
T1 sequence (P25101 21-427): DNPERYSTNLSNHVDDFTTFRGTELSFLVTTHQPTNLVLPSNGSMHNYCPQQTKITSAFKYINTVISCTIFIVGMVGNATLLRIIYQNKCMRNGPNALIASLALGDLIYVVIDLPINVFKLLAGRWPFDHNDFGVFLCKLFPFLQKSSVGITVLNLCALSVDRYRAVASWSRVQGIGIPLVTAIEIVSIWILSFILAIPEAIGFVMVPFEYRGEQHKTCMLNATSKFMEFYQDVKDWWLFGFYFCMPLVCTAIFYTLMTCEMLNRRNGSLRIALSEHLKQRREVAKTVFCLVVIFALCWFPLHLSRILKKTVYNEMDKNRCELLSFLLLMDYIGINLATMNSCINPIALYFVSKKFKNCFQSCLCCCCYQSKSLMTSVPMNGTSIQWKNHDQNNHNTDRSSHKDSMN

[2] = target: T2, human recombinant ETB receptors (Homo sapiens, UniProt P24530); test: Inhibition of endothelin binding to membranes from CHO cells carrying human ET receptors (ETB)
T2 construct: expressed in transfected cells; host or cells: CHO cells (microsomal membranes)
T2 sequence (P24530 27-442): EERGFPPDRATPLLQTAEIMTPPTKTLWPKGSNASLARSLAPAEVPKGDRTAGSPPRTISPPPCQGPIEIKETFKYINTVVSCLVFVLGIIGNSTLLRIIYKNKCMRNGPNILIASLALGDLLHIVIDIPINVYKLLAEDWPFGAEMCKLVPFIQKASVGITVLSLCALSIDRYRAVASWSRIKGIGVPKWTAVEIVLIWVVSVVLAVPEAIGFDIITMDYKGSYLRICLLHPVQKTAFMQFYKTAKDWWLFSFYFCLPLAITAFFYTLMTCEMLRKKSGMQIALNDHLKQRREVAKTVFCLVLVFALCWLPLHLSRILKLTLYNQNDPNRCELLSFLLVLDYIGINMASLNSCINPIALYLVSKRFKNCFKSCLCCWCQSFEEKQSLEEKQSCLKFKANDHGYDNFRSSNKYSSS

[3] = target: T3, rat aortic rings (ETA receptors) (Rattus norvegicus, UniProt P26684); test: Inhibition of endothelin-1-induced contractions on isolated rat aortic rings; conditions: read-out: pA2 (aortic rings) (converted)
T3 construct: from tissue; host or cells: thoracic aorta rings of adult Wistar rats, endothelium removed
T3 sequence (P26684 21-426): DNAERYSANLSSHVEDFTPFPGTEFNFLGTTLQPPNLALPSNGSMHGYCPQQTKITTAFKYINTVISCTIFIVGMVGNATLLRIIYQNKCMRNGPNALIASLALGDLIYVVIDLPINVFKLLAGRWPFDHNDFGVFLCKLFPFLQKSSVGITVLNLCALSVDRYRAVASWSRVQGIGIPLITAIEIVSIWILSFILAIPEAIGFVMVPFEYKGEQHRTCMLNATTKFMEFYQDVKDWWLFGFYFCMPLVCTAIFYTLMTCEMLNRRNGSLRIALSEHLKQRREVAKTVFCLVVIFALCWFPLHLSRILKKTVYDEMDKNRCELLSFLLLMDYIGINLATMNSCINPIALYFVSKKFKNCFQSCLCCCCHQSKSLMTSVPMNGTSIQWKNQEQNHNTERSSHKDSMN

pIC50 ([1]; read-out: IC50 ETA) | pIC50 ([2]; read-out: IC50 ETB) | Kb [3] | Structure (SMILES) | pIC50 [1] | pIC50 [2]
 |  |  | Cc1cc(C)nc(O[C@H](C(=O)O)[C@@]2(c3ccccc3)NCc3nnc(CC(=O)O)n3-c3ccccc32)n1 (racemic) [Example 27, (±)-(S*)-((6S*)-1-carboxymethyl-6-phenyl-5,6-dihydro-4H-2,3,5,10b-tetraaza-benzo[e]azulen-6-yl)-(4,6-dimethyl-pyrimidin-2-yloxy)-acetic acid] | 7.89 | 6.90
7.54 | 6.15 |  | COc1cc(OC)nc(O[C@H](C(=O)O)[C@@]2(c3ccccc3)NCC(=O)N(C)c3ccccc32)n1 (racemic) [Example 39, (±)-(S*)-((5S*)-1-methyl-2-oxo-5-phenyl-2,3,4,5-tetrahydro-1H-benzo[e][1,4]di-azepin-5-yl)-(4,6-dimethoxy-pyrimidin-2-yloxy)-acetic acid] |  | 
8.10 | 7.28 |  | COc1cc(CN2C(=O)CN[C@](c3ccccc3)([C@H](Oc3nc(OC)cc(OC)n3)C(=O)O)c3ccccc32)cc(OC)c1 (racemic) [Example 40, (±)-(S*)-[(5S*)-1-(3,5-dimethoxy-benzyl)-2-oxo-5-phenyl-2,3,4,5-tetrahydro-1H-benzo[e][1,4]diazepin-5-yl]-(4,6-dimethoxy-pyrimidin-2-yloxy)-acetic acid] |  | 
7.77 | 6.62 |  | Cc1cc(C)nc(O[C@H](C(=O)O)[C@@]2(c3ccccc3)NCC(=O)N(C)c3ccccc32)n1 (racemic) [Example 49, (±)-(S*)-(4,6-dimethyl-pyrimidin-2-yloxy)-((5S*)-1-methyl-2-oxo-5-phenyl-2,3,4,5-tetrahydro-1H-benzo[e][1,4]diazepin-5-yl)-acetic acid] |  | 
7.92 | 6.29 |  | Cc1cc(C)nc(O[C@H](C(=O)O)[C@@]2(c3ccccc3)NCC(=O)N(CC(=O)O)c3ccccc32)n1 (racemic) [Example 50, (±)-(S*)-((5S*)-1-Carboxymethyl-2-oxo-5-phenyl-2,3,4,5-tetrahydro-1H-benzo[e][1,4]diazepin-5-yl)-(4,6-dimethyl-pyrimidin-2-yloxy)-acetoc acid] |  | 
8.15 | 7.59 | 40.7 nM | COc1cc(CN2C(=O)CN[C@](c3ccccc3)([C@H](Oc3nc(C)cc(C)n3)C(=O)O)c3ccccc32)cc(OC)c1 (racemic) [Example 51, (±)-(S*)-[(5S*)-1-(3,5-Dimethoxy-benzyl)-2-oxo-5-phenyl-2,3,4,5-tetra-hydro-1H-benzo[e][1,4]diazepin-5-yl]-(4,6-dimethyl-pyrimidin-2-yloxy)-acetic acid] |  | 
 |  |  | Cc1cc(C)nc(O[C@H](C(=O)O)[C@@]2(c3ccccc3)NCC(=O)N(CCO)c3ccccc32)n1 (racemic) [Example 56, (±)-(S*)-(4,6-Dimethyl-pyrimidin-2-yloxy)-[(5S*)-1-(2-hydroxy-ethyl)-2-oxo-5-phenyl-2,3,4,5-tetrahydro-1H-benzo[e][1,4]diazepin-5-yl]-acetic acid] | 8.40 | 7.08
8.70 | 7.54 |  | COC(=O)c1ccc(CN2C(=O)CN[C@](c3ccccc3)([C@H](Oc3nc(C)cc(C)n3)C(=O)O)c3ccccc32)cc1 (racemic) [Example 58, (±)-4-{(5S*)-5-[(S*)-Carboxy-(4,6-dimethyl-pyrimidin-2-yloxy)-methyl]-2-oxo-5-phenyl-2,3,4,5-tetrahydro-benzo[e][1,4]diazepin-1-ylmethyl}-benzoic acid methyl ester] |  | 
9.00 | 8.40 |  | Cc1cc(C)nc(O[C@H](C(=O)O)[C@@]2(c3ccccc3)NCC(=O)N(CCc3cn(C)c4ccccc34)c3ccccc32)n1 (racemic) [Example 68] |  | 
8.52 | 7.64 |  | Cc1cc(C)nc(O[C@H](C(=O)O)[C@@]2(c3ccccc3)NCC(=O)N(CCc3ccccc3)c3ccccc32)n1 (racemic) [Example 78] |  | 
8.52 | 8.00 |  | Cc1cc(C)c(CN2C(=O)CN[C@](c3ccccc3)([C@H](Oc3nc(C)cc(C)n3)C(=O)O)c3ccccc32)c(C)c1 (racemic) [Example 111] |  | 
 |  | 105 nM | COc1cc(OC)nc(O[C@H](C(=O)O)[C@@]2(c3ccccc3)NCC(=O)N(C)c3ccc(Cl)cc32)n1 (racemic) [Example 166, (±)-(1S*)-((5S*)-7-Chloro-1-methyl-2-oxo-5-phenyl-2,3,4,5-tetrahydro-1H-benzo[e][1,4]diazepin-5-yl)-(4,6-dimethoxy-pyrimidin-2-yloxy)-acetic acid] |  | 
7.44 | 6.02 |  | COc1cc(CN2C(=O)CN[C@](c3ccccc3)([C@H](Oc3nc(OC)cc(OC)n3)C(=O)O)c3cc(Cl)ccc32)cc(OC)c1 (racemic) [Example 167, (±)-(1S*)-[(5S*)-7-Chloro-1-(3,5-dimethoxy-benzyl)-2-oxo-5-phenyl-2,3,4,5-tetrahydro-1H-benzo[e][1,4]diazepin-5-yl]-(4,6-dimethoxy-pyrimidin-2-yloxy)-acetic acid] |  | 
8.30 | 7.41 |  | COc1ccc(CN2C(=O)CN[C@](c3ccc(F)c(C)c3)([C@H](Oc3nc(C)cc(C)n3)C(=O)O)c3ccccc32)cc1 (racemic) [Example 218, (±)-(S*)-(4,6-Dimethyl-pyrimidin-2-yloxy)-[(5S*)-5-(4-fluoro-3-methyl-phenyl)-1-(4-methoxy-benzyl)-2-oxo-2,3,4,5-tetrahydro-1H-benzo[e][1,4]diazepin-5-yl]-acetic acid] |  | 
7.96 | 7.64 |  | COC(=O)[C@@H](c1ccccc1)N1C(=O)CN[C@](c2ccccc2)([C@H](Oc2nc(C)cc(C)n2)C(=O)O)c2ccccc21 (relative stereo) [Example 52, (±)-(S*)-(4,6-Dimethyl-pyrimidin-2-yloxy)-[(5S*)-1-((R/S)-methoxycarbonyl-phenyl-methyl)-2-oxo-5-phenyl-2,3,4,5-tetrahydro-1H-benzo[e][1,4]diazepin-5-yl]-acetic acid] |  | 

Structure (SMILES) | pIC50 ([1]; read-out: IC50 ETA) | pIC50 ([2]; read-out: IC50 ETB) | Kb [3] | pIC50 [1] | pIC50 [2]
Cc1cc(C)nc(O[C@H](C(=O)O)[C@@]2(c3ccccc3)NCC(=O)N(c3ccccc3)c3ccccc32)n1 (racemic) [Example 117, (±)-(S*)-(4,6-dimethyl-pyrimidin-2-yloxy)-[(5S*)-2-oxo-1,5-diphenyl-2,3,4,5-tetrahydro-1H-benzo[e][1,4]diazepin-5-yl]-acetic acid] | 7.21 | 6.13 |  |  | 
Cc1cc(C)nc(O[C@H](C(=O)O)[C@]2(c3ccccc3)c3ccccc3N(Cc3c(F)cc(F)cc3F)C(=O)CN2C)n1 (racemic) [Example 129, (±)-(S*)-(4,6-Dimethyl-pyrimidin-2-yloxy)-[(5S*)-4-methyl-2-oxo-5-phenyl-1-(2,4,6-trifluoro-benzyl)-2,3,4,5-tetrahydro-1H-benzo[e][1,4]diazepin-5-yl]-acetic acid] | 8.22 | 6.45 |  |  | 
Cc1cc(C)nc(O[C@H](C(=O)O)[C@@]2(c3ccccc3)NCC(=O)N(C)c3ccc(Cl)cc32)n1 (racemic) [Example 170, (±)-(1S*)-((5S*)-7-Chloro-1-methyl-2-oxo-5-phenyl-2,3,4,5-tetra-hydro-1H-benzo[e][1,4]diazepin-5-yl)-(4,6-dimethyl-pyrimidin-2-yloxy)-acetic acid] | 7.82 | 6.43 |  |  | 
Cc1cccc([C@]2([C@H](Oc3nc(C)cc(C)n3)C(=O)O)NCC(=O)N(C)c3ccccc32)c1 (racemic) [Example 187, (±)-(S*)-(4,6-Dimethyl-pyrimidin-2-yloxy)-[(5S*)-1-methyl-2-oxo-5-m-tolyl-2,3,4,5-tetrahydro-1H-benzo[e][1,4]diazepin-5-yl]-acetic acid] | 7.74 | 6.74 |  |  | 
Cc1cc(C)nc(O[C@H](C(=O)O)[C@@]2(c3cccc(-c4ccccc4)c3)NCC(=O)N(Cc3c(F)ccc(F)c3F)c3ccccc32)n1 (racemic) [Example 213] | 8.52 | 7.54 |  |  | 
CCCCc1ccc(CN2C(=O)CN[C@](c3cccc(CCCC)c3)([C@H](Oc3nc(C)cc(C)n3)C(=O)O)c3ccccc32)cc1 (racemic) [Example 223] | 8.15 | 7.92 |  |  | 
